Data taken from patent US10874669B2 (WAYNE STATE UNIVERSITY, priority 2018, dated 2020).
Where two headings read alike, the source gives them in different places.

Legend:
PC12 cells [1] = experiment: DCFDA fluorescence assay of intracellular ROS induced by 6-OHDA; assay type: cell-based, rat; conditions: 20 μM, 24 h pretreatment, then 75 μM 6-OHDA 1 h
Experimental: Experimental detection of reactive oxygen species (ROS) produced by 6-OHDA was carried out by DCFDA assay. 6-OHDA, a well known neurotoxin, produces oxidative stress similar to what is observed in PD and the mechanism of neurotoxicity of 6-OHDA takes place via its auto-oxidation and subsequent generation of hydrogen peroxide. DCFDA is a non-fluorogenic dye but in the presence of ROS, it is oxidized to produce DCF which produces florescence. We have previously shown that 6-OHDA causes cell death in a dose-dependent manner. We chose 75 μM 6-OHDA as we have shown that this dose induces 40-50% cell death. […] However, the test compounds could dose dependently decrease the production of ROS induced by 6-OHDA (75 μM) in PC12 cells. In this regard, highest dose of all the three compounds was the most efficacious in producing significant antioxidant effect.
PC12 cells (ATCC CRL1721.1, Manassas, Va., USA), a rat adrenal pheochromocytoma cell line, were cultured in T-75 flasks (Greiner Bio One, Frickenhausen, Germany) and maintained in RPMI 1640 medium supplemented with 10% heat inactivated horse serum, 5% fetal bovine sérum, 100 U/ml penicillin, and 100 μg/mL streptomycin at 37° C. in 95% air/5% CO2. […]
PC12 cells were plated at 30,000 cells/well density in 100 μL media in 96-well black plates and incubated at 37° C. under 5% CO2 atmosphere for 24 h. […] After incubation for 1 h, the fluorescence was measured using spectrophotometer fluorescence generated microplate reader (Biotek Epoch, Winooski, Vt., USA) at excitation 497 nm and emission at 527 nm. […] The specific fluorescence emission was calculated after subtraction of the DCFDA untreated control cells from the DCFDA treated cells for both the background and 1 h treatment conditions. This was followed by the division of the 1 h treatment data by the background activity which was determined from vials before treatment with 6-OHDA, to derive the final data point.

human DA D3 receptors = human DA D3 receptors (Homo sapiens (Human), UniProt P35462); experiment: [35S]GTPγS binding stimulation, human D3 receptors in CHO cells; assay type: biochemical; conditions: for Emax: compared with maximum stimulation by full agonist DA
PC12 cells [2] = experiment: MTT neuroprotection against 6-OHDA-induced toxicity; assay type: cell-based, rat; conditions: for concentration of greatest protective effect: 24 h pretreatment, then 75 μM 6-OHDA 24 h; for increase in cell survival compared to 6-OHDA treated alone: at concentration of greatest protective effect, 75 μM 6-OHDA
Experimental: To investigate the neuroprotection property of the selected target molecules (−)-91b, (−)-95a and (−)-95c against 6-OHDA-induced cytotoxicity, we used dopaminergic rat adrenal Pheochromocytoma PC12 cells. As reported above, treatment of PC12 cells with 6-OHDA at 75 μM for 24 h produced ˜50% loss in cells viability and this concentration was used in subsequent experiments. […] However, (−)-95a produced some incremental toxicity starting at 20 μM dose (FIG. 4B). The potential neuroprotective effects of (−)-91b, (−)-95a and (−)-95c against 6-OHDA-induced toxicity were evaluated next. […] At those concentration both drugs increased cell survival by ˜20% compared to 6-OHDA (75 μM) treated alone (FIGS. 4D and 4F), indicating neuroprotective effect of these drugs. […] This could be due to the fact that the compound by itself produced toxicity to the cells at doses ≥20 μM and the presence of 6-OHDA enhanced the toxicity (FIG. 4B).
PC12 cells (ATCC CRL1721.1, Manassas, Va., USA), a rat adrenal pheochromocytoma cell line, were cultured in T-75 flasks (Greiner Bio One, Frickenhausen, Germany) and maintained in RPMI 1640 medium supplemented with 10% heat inactivated horse serum, 5% fetal bovine serum, 100 U/ml penicillin, and 100 μg/mL streptomycin at 37° C. in 95% air/5% CO2. Stock solutions of (−)-91b, (−)-95a, (−)-95c, and 6-hydroxydopamine (6-OHDA) were prepared in dimethylsulfoxide (DMSO) and aliquots were stored at −20° C. and −80° C., respectively. For all experiments assessing neuroprotective effects of the test compounds, PC12 cells were pretreated with indicated concentrations of (−)-91b, (−)-95a and (−)-95c for 24 h and then treated with 75 μM 6-OHDA for another 24 h. The control cells were treated with above media containing 0.01% DMSO only.
PC12 cells were plated at 17000 cells/well density in 100 μL of media in 96-well plates and incubated at 37° C. under 5% CO2 atmosphere for 24 h. Cells were treated with varying concentrations of the test compounds to determine their direct effect on cell viability. Neuroprotection experiments were conducted by treating cells for 24 h with varying concentrations of (−)-91b, (−)-95a and (−)-95c. Then the drug containing media was replaced with fresh culture media followed by treatment with 75 μM of 6-OHDA alone for an additional 24 h under the same condition. After incubation for 24 h, 5 mg/mL MTT solution (prepared in Dulbecco's phosphate-buffered saline) was added to the cells (to a final concentration of 0.5 mg/mL) and the plates were further incubated at 37° C. in 95% air/5% CO2 atmosphere for 3-4 h to produce dark-blue formazan crystals. Afterward, the plates were centrifuged at 450 g for 10 min and the supernatants were carefully removed. Formazan crystals were dissolved by adding 100 μL of methanol:DMSO (1:1) mixture to each well and shaking gently at 400 rpm for 30 min at room temperature on a Thermomix R shaker (Eppendorf, Hamburg, Germany). The absorbance was measured on a microplate reader (Biotek Epoch, Winooski, Vt., USA) at 570 nm with background correction performed at 690 nm. Data from at least three experiments were analyzed using GraphPad software (version 6, San Diego, Calif., USA). Cell viability was defined as […] compared to untreated controls.

Sequence of human DA D3 receptors (P35462 whole entry): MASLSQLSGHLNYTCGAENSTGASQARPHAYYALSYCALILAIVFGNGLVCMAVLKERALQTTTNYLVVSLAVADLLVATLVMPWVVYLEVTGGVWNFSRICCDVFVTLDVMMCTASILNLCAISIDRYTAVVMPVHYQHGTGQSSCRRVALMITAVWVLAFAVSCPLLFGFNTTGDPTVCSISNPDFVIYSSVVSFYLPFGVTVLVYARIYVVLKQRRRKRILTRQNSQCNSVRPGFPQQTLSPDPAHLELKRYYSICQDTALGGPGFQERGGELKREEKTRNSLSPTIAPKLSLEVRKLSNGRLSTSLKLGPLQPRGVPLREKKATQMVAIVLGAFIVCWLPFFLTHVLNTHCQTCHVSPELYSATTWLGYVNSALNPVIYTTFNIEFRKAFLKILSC

EC50 (human DA D3 receptors; CHO cells, read-out: EC50 (GTPγS), D3) [nM]	SMILES	reduction in ROS (PC12 cells [1]) [%]	EC50 (human DA D3 receptors) [nM]	Emax (human DA D3 receptors) [%]	concentration of greatest protective effect (PC12 cells [2]) [µM]	increase in cell survival compared to 6-OHDA treated alone (PC12 cells [2]) [%]
	CCCN(CCN1CCN(c2ccc3c(c2)[nH]c2ccccc23)CC1)[C@H]1CCc2c(O)cccc2C1 [Compound (−)-95a, (S)-6-((2-(4-(9H-carbazol-2-yl)piperazin-1-yl)ethyl)(propyl)amino)-5,6,7,8-tetrahydronaphthalen-1-ol]	93	0.23	85 to 92	10	15
0.96	CCCN(CCN1CCN(c2ccc3[nH]c4ccccc4c3c2)CC1)[C@H]1CCc2nc(N)sc2C1 [(−)-91b, (S)—N^6-(2-(4-(9H-carbazol-3-yl)piperazin-1-yl)ethyl)-N^6-propyl-4,5,6,7-tetrahydrobenzo[d]thiazole-2,6-diamine]	76		87 to 93	5	~20
